Source: ChEMBL document CHEMBL5303764, “Data for DCP probe BI-3812” (2023)
Activity calls are given as the source filed them. No cut-off for these calls is given here.

What was measured:
[1] = biological target: Interleukin-1 receptor-associated kinase 4 (Homo sapiens) (UniProt Q9NWZ3); assay: IRAK4 Invitrogen Lab (UK) kinase screen (BI); conditions: Compound concentration 1.0 uM
[2] = biological target: D(2) dopamine receptor (Homo sapiens) (UniProt P14416); assay: D2SH_AGON Eurofins SafetyScreen44 (BI); conditions: filed as agonist, Compound concentration 10.0 uM
[3] = biological target: Sodium-dependent noradrenaline transporter (Homo sapiens) (UniProt P23975); assay: NEUP/H Eurofins SafetyScreen44 (BI); conditions: Compound concentration 10.0 uM
[4] = biological target: B-cell CLL/lymphoma 6 member B protein (Homo sapiens, UniProt Q8N143); assay: SPR (BCL6B), Ontario institute for cancer research
[5] = biological target: 5-hydroxytryptamine receptor 1B (Homo sapiens) (UniProt P28222); conditions: Compound concentration 10.0 uM
5-hydroxytryptamine receptor 1B (Homo sapiens), sequence (P28222 whole entry, the tested form may be a part): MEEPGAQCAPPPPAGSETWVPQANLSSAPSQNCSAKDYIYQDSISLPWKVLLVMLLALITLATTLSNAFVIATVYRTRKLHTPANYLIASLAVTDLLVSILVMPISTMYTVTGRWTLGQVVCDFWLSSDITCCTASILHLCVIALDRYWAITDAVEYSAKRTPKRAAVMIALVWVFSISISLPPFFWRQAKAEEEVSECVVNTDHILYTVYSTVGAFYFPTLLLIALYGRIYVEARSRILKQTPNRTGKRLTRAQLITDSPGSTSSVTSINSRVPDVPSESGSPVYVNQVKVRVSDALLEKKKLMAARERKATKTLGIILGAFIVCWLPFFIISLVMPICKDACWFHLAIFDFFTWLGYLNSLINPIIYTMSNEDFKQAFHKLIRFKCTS

[6] = biological target: Zinc finger and BTB domain-containing protein 17 (Homo sapiens, UniProt Q13105); assay: SPR (ZBTB17), Ontario institute for cancer research
[7] = biological target: Alpha-1D adrenergic receptor (Homo sapiens) (UniProt P25100); conditions: Compound concentration 10.0 uM
Alpha-1D adrenergic receptor (Homo sapiens), sequence (P25100 whole entry): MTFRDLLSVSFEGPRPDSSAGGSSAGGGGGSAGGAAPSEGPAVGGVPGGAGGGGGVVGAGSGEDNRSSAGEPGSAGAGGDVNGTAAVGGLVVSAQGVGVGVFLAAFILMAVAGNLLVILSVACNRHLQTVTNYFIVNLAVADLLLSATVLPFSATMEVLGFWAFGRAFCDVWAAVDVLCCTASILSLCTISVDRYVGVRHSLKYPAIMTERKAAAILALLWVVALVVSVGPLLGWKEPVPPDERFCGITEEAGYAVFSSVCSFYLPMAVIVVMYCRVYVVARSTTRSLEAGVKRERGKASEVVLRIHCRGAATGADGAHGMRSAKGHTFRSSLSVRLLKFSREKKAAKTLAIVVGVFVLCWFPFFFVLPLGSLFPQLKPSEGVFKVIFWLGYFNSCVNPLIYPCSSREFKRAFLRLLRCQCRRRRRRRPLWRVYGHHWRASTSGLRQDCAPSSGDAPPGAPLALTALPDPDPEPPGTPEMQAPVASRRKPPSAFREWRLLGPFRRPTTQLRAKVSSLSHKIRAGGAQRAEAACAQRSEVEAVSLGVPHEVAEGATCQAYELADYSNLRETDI

[8] = biological target: D(1B) dopamine receptor (Homo sapiens) (UniProt P21918); conditions: Compound concentration 10.0 uM
D(1B) dopamine receptor (Homo sapiens), sequence (P21918 whole entry): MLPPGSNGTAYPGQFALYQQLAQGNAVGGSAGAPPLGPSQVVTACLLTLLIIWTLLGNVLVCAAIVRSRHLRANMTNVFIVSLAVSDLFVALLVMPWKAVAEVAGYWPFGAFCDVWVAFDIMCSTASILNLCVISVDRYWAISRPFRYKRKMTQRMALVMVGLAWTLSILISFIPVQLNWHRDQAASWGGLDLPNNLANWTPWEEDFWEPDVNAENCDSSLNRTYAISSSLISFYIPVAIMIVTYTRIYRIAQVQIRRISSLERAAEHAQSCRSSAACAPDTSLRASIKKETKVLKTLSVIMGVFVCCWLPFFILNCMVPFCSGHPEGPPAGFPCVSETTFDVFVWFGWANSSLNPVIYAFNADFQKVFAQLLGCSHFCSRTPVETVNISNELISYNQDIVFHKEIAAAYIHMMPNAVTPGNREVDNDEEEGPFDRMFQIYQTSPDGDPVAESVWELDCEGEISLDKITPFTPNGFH

[9] = biological target: Endothelin-1 receptor (Homo sapiens) (UniProt P25101); assay: ETA/H Eurofins SafetyScreen44 (BI); conditions: Compound concentration 10.0 uM
[10] = biological target: Muscarinic acetylcholine receptor M4 (Homo sapiens) (UniProt P08173); conditions: Compound concentration 10.0 uM
Muscarinic acetylcholine receptor M4 (Homo sapiens), sequence (P08173 whole entry): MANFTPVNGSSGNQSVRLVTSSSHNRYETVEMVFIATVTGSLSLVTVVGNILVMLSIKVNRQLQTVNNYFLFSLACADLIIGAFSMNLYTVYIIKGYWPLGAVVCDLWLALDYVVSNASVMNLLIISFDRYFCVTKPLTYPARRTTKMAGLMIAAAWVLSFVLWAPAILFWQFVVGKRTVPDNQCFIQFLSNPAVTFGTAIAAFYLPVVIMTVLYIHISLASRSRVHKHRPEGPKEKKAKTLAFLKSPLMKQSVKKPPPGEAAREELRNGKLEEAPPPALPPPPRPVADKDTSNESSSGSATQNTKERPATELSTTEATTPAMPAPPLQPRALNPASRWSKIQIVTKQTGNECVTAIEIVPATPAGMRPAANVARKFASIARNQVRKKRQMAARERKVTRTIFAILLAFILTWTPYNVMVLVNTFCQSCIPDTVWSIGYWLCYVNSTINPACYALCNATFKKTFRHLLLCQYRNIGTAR

[11] = biological target: Glucocorticoid receptor (Homo sapiens) (UniProt P04150); assay: GCORTICOID/H Eurofins SafetyScreen44 (BI); conditions: Compound concentration 10.0 uM
[12] = biological target: Ribosomal protein S6 kinase alpha-4 (Homo sapiens) (UniProt O75676); assay: RPS6KA4 Invitrogen Lab (UK) kinase screen (BI); conditions: Compound concentration 1.0 uM
[13] = biological target: Proto-oncogene tyrosine-protein kinase receptor Ret (Homo sapiens) (UniProt P07949); assay: RET Invitrogen Lab (UK) kinase screen (BI); conditions: Compound concentration 1.0 uM
[14] = biological target: Focal adhesion kinase 1 (Homo sapiens) (UniProt Q05397); assay: PTK2 Invitrogen Lab (UK) kinase screen (BI); conditions: Compound concentration 1.0 uM
[15] = biological target: Platelet-derived growth factor receptor alpha (Homo sapiens) (UniProt P16234); assay: PDGFRA Invitrogen Lab (UK) kinase screen (BI); conditions: Compound concentration 1.0 uM
[16] = biological target: Tyrosine-protein kinase Lck (Homo sapiens) (UniProt P06239); assay: LCK_CE Eurofins SafetyScreen44 (BI); conditions: Compound concentration 10.0 uM
[17] = biological target: Mu-type opioid receptor (Homo sapiens) (UniProt P35372); assay: MU/H Eurofins SafetyScreen44 (BI); conditions: Compound concentration 10.0 uM
[18] = biological target: Alpha-2A adrenergic receptor (Homo sapiens) (UniProt P08913); conditions: Compound concentration 10.0 uM
Alpha-2A adrenergic receptor (Homo sapiens), sequence (P08913 whole entry): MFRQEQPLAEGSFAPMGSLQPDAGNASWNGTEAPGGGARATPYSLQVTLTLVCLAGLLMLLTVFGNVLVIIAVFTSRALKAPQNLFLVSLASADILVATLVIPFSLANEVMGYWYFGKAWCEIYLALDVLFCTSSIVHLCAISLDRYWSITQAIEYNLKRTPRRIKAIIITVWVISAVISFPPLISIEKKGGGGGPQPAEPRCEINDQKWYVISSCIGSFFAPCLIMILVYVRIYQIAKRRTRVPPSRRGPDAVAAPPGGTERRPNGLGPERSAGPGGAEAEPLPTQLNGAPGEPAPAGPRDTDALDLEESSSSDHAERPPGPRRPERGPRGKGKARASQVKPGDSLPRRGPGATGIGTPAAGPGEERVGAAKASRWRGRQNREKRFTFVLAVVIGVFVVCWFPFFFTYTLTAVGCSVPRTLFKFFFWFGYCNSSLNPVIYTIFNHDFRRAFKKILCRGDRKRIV

[19] = biological target: Dual specificity protein kinase CLK1 (Homo sapiens) (UniProt P49759); assay: CLK1 Invitrogen Lab (UK) kinase screen (BI); conditions: Compound concentration 1.0 uM
[20] = biological target: Kappa-type opioid receptor (Homo sapiens) (UniProt P41145); assay: KAPPA(KOP)_HU Eurofins SafetyScreen44 (BI); conditions: Compound concentration 10.0 uM
Kappa-type opioid receptor (Homo sapiens), sequence (P41145 whole entry): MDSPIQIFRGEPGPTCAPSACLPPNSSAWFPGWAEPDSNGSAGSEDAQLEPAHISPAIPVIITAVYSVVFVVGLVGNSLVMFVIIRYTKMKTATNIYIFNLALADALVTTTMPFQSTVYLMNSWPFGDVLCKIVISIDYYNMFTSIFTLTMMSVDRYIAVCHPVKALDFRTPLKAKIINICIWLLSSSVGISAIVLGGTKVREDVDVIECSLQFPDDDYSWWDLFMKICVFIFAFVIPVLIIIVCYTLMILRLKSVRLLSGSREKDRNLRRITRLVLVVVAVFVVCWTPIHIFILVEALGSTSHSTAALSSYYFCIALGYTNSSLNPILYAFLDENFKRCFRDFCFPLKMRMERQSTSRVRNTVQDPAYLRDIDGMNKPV

[21] = biological target: Sigma intracellular receptor 2 (Homo sapiens) (UniProt Q5BJF2); conditions: Compound concentration 10.0 uM
Sigma intracellular receptor 2 (Homo sapiens), sequence (Q5BJF2 whole entry): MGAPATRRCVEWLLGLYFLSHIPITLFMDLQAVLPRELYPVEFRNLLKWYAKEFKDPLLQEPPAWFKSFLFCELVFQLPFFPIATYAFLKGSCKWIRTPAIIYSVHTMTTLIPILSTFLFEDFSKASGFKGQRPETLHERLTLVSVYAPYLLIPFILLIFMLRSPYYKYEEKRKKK

[22] = biological target: 5-hydroxytryptamine receptor 2A (Homo sapiens) (UniProt P28223); conditions: Compound concentration 10.0 uM
5-hydroxytryptamine receptor 2A (Homo sapiens), sequence (P28223 whole entry): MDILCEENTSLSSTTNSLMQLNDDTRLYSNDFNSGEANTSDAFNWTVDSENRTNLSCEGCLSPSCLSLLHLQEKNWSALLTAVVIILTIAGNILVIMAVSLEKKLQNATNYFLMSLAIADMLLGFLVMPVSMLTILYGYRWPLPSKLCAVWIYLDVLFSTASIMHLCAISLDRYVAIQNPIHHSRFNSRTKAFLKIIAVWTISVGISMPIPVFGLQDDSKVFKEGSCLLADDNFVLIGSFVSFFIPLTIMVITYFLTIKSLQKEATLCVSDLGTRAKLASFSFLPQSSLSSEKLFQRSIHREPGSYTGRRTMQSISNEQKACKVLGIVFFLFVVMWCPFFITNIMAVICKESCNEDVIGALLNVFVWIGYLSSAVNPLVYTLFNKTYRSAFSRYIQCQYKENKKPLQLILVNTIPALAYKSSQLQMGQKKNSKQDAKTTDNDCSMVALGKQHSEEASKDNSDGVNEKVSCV

[23] = biological target: Epidermal growth factor receptor (Homo sapiens) (UniProt P00533); assay: EGFR Invitrogen Lab (UK) kinase screen (BI); conditions: Compound concentration 1.0 uM
[24] = biological target: Glutamate NMDA receptor (Rattus norvegicus) (UniProt P35439+Q00959+Q00960+Q00961+Q62645+Q8VHN2+Q9R1M7); assay: NMDA/R Eurofins SafetyScreen44 (BI); assay type: protein-complex assay; conditions: Compound concentration 10.0 uM
[25] = biological target: SRSF protein kinase 2 (Homo sapiens) (UniProt P78362); assay: SRPK2 Invitrogen Lab (UK) kinase screen (BI); conditions: Compound concentration 1.0 uM
[26] = biological target: Kappa-type opioid receptor (Homo sapiens) (UniProt P41145); conditions: Compound concentration 10.0 uM
[27] = biological target: Muscarinic acetylcholine receptor M1 (Homo sapiens) (UniProt P11229); assay: M1/H Eurofins SafetyScreen44 (BI); conditions: Compound concentration 10.0 uM
[28] = biological target: Muscarinic acetylcholine receptor M3 (Homo sapiens, UniProt P20309); assay: GPCRScan assay: inhibition of M3; set-up: radioligand conc. used [nm] 0.3 – 1.0, parental cells stable CHO
Muscarinic acetylcholine receptor M3, sequence (P20309 whole entry): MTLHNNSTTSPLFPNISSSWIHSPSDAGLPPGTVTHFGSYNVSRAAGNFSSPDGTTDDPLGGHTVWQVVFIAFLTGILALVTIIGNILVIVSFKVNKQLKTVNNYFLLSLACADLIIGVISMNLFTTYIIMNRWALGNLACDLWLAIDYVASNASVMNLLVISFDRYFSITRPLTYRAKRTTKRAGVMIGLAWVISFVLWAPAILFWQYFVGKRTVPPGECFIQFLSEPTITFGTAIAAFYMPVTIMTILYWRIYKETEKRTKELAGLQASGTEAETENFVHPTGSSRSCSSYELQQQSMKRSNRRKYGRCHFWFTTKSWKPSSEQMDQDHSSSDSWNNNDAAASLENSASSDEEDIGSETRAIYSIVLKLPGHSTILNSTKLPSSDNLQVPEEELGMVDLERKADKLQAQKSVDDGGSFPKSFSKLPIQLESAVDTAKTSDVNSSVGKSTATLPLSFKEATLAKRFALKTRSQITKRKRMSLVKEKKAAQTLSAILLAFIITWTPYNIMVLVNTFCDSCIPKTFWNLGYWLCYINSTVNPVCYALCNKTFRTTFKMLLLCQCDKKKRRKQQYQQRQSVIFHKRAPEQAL

[29] = biological target: Serine/threonine-protein kinase TBK1 (Homo sapiens) (UniProt Q9UHD2); assay: TBK1 Invitrogen Lab (UK) kinase screen (BI); conditions: Compound concentration 1.0 uM
[30] = biological target: cAMP-dependent protein kinase catalytic subunit alpha (Homo sapiens) (UniProt P17612); assay: PRKACA Invitrogen Lab (UK) kinase screen (BI); conditions: Compound concentration 1.0 uM
[31] = biological target: 5-hydroxytryptamine receptor 3A (Homo sapiens) (UniProt P46098); assay: 5HT3/H Eurofins SafetyScreen44 (BI); conditions: Compound concentration 10.0 uM
[32] = biological target: Fibroblast growth factor receptor 1 (Homo sapiens) (UniProt P11362); assay: FGFR1 Invitrogen Lab (UK) kinase screen (BI); conditions: Compound concentration 1.0 uM
[33] = biological target: Muscarinic acetylcholine receptor M2 (Homo sapiens) (UniProt P08172); assay: M2/H Eurofins SafetyScreen44 (BI); conditions: filed as antagonist, Compound concentration 10.0 uM
[34] = biological target: Mitogen-activated protein kinase 3 (Homo sapiens) (UniProt P27361); assay: MAPK3 Invitrogen Lab (UK) kinase screen (BI); conditions: Compound concentration 1.0 uM
[35] = biological target: Ribosomal protein S6 kinase alpha-5 (Homo sapiens) (UniProt O75582); assay: RPS6KA5 Invitrogen Lab (UK) kinase screen (BI); conditions: Compound concentration 1.0 uM
[36] = biological target: RAF proto-oncogene serine/threonine-protein kinase (Homo sapiens) (UniProt P04049); assay: RAF1 Invitrogen Lab (UK) kinase screen (BI); conditions: Compound concentration 1.0 uM
[37] = biological target: Alpha-2B adrenergic receptor (Homo sapiens) (UniProt P18089); conditions: Compound concentration 10.0 uM
Alpha-2B adrenergic receptor (Homo sapiens), sequence (P18089 whole entry): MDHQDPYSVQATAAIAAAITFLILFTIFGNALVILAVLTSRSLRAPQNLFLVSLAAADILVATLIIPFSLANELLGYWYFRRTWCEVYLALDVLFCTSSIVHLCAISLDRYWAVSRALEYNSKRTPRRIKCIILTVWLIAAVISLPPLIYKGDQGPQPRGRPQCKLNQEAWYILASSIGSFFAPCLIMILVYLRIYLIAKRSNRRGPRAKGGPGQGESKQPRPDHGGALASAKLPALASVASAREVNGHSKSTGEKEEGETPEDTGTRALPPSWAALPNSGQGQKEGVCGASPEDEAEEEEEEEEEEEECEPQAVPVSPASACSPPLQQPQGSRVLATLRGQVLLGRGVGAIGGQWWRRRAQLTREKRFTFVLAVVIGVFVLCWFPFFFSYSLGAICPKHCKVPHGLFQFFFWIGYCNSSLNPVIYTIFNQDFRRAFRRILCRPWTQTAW

[38] = biological target: Ribosomal protein S6 kinase alpha-3 (Homo sapiens) (UniProt P51812); assay: RPS6KA3 Invitrogen Lab (UK) kinase screen (BI); conditions: Compound concentration 1.0 uM
[39] = biological target: Sigma non-opioid intracellular receptor 1 (Homo sapiens) (UniProt Q99720); conditions: Compound concentration 10.0 uM
Sigma non-opioid intracellular receptor 1 (Homo sapiens), sequence (Q99720 whole entry): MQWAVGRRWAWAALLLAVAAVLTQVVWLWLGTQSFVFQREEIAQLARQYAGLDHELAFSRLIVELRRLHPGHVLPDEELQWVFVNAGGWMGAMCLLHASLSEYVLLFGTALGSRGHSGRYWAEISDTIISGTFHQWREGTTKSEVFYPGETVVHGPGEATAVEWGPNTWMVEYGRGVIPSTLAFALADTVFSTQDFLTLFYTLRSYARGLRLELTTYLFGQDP

[40] = biological target: B-cell lymphoma 6 protein (Homo sapiens, UniProt P41182); assay: BCL6:BCOR ULight TR-FRET
[41] = biological target: Insulin receptor (Homo sapiens) (UniProt P06213); assay: INSR Invitrogen Lab (UK) kinase screen (BI); conditions: Compound concentration 1.0 uM
[42] = biological target: Dual specificity mitogen-activated protein kinase kinase 1 (Homo sapiens) (UniProt Q02750); assay: MAP2K1 Invitrogen Lab (UK) kinase screen (BI); conditions: Compound concentration 1.0 uM
[43] = biological target: Delta-type opioid receptor (Homo sapiens) (UniProt P41143); assay: DELTA2/H Eurofins SafetyScreen44 (BI); conditions: Compound concentration 10.0 uM
[44] = biological target: Cholecystokinin receptor type A (Homo sapiens) (UniProt P32238); assay: CCKA/H Eurofins SafetyScreen44 (BI); conditions: Compound concentration 10.0 uM

In the case of `CNC(=O)COc1cc2cc(Nc3nc(N4CCC(C(=O)N(C)C)CC4)ncc3Cl)cc(OC)c2n(C)c1=O`, the residual activity [1] is reported as 106%, the residual activity [2] is reported as 101% and the residual activity [3] is reported as 99%. The Kd [4] was 3.68 µM (not active), the inhibition [5] was 9.19% and the Kd [6] was “No binding”. For the same compound, the inhibition [7] was 2.72%, the inhibition [8] was 3.05% and the residual activity [9] was 104%. For the same compound, the inhibition [10] was 74.1%, the residual activity [11] was 102% and the residual activity [12] was 93%. The residual activity [13] was 95%, the residual activity [14] was 90% and the residual activity [15] was 88%. The residual activity [16] was 99%, the residual activity [17] was 95% and the inhibition [18] was 15.1%. For the same compound, the residual activity [19] was 88%, the residual activity [20] was 83% and the inhibition [21] was 38.2%. It also gave an inhibition [22] of 7.86%, a residual activity [23] of 100% and a residual activity [24] of 104%. For the same compound, the residual activity [25] was 103%, the inhibition [26] was 15.4% and the residual activity [27] was 15%. For the same compound, the Ki [28] was > 10 µM, the pKi [28] was < 5 and the residual activity [29] was 97%. For the same compound, the residual activity [30] was 99%, the residual activity [31] was 95% and the residual activity [32] was 86%. It also gave a residual activity [33] of 13%, a residual activity [34] of 95% and a residual activity [35] of 103%. It also gave a residual activity [36] of 79%, an inhibition [37] of 20.7% and a residual activity [38] of 93%. For the same compound, the inhibition [39] was 16.8%, the IC50 [40] was ≤ 0.003 µM (active) and the residual activity [41] was 93%. It also gave a residual activity [42] of 100%, a residual activity [43] of 85% and a residual activity [44] of 93%.
